pIC50, pKi: −log10 of the molar value. Like-named read-outs stand apart in the source and are kept apart here.
Key:
TS = target: T1, TS (Mus musculus, UniProt P07607); experiment: Inhibition of TS purified >2,000 fold from L1210 cells by affinity chromatography; format: biochemical; details: for Relative potency ([drawing 17], I50 relative to CB 3717): relative to CB 3717 control, higher = weaker; for pIC50: second results table, TS purified >2,000 fold, read-out: TS I50
T1 construct: endogenous in cells
T1 sequence (P07607 whole entry): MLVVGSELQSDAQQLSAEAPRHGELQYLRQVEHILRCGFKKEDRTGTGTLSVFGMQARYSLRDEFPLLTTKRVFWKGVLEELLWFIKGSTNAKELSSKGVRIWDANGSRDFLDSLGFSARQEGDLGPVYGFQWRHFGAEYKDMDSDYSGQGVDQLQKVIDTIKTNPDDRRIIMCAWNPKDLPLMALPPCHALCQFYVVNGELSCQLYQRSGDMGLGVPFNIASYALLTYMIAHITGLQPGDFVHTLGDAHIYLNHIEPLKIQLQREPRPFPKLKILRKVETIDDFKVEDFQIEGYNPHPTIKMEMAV

L1210 cells [1] = experiment: Growth inhibition of L1210 cells in suspension culture, 48 h count; format: cell-based; details: Mus musculus
Experimental: (§1) Cells were diluted to 10^5 /ml and additions (diluted in medium and sterilised in Millipore filtration) made prior to starting each incubation. Cell counts were performed after 24 and 48 hours using an improved Neubauer haemocytometer.

[2] = target: T2, THYMIDYLATE SYNTHETASE (TS) (Mus musculus, UniProt P07607); experiment: Inhibition of thymidylate synthetase (TS), partially purified L1210 cytosol; format: biochemical; details: Table 1, inhibitor concentration reducing TS reaction rate by 50%, read-out: THYMIDYLATE SYNTHETASE I50
T2 construct: The cytosol of log phase L1210 cells harvested from animals was partially purified for TS I50 and Ki determinations; endogenous in cells; host or cells: L1210 cells harvested from animals (cytosol, partially purified)
T2 sequence (P07607 whole entry): as above
Description: (§2) The cytosol of log phase L1210 cells harvested from animals was partially purified for TS I50 and Ki determinations to remove from the preparation a phosphatase which degrades dUMP to deoxyuridine. (The I50 was defined as the inhibitor concentration necessary to reduce the reaction rate of TS by 50%). DHFR was purified by affinity chromatography and Ki determinations performed.

L1210:R71 cells = experiment: Growth inhibition of methotrexate-resistant L1210:R71 cells in suspension culture, 48 h count; format: cell-based, mouse; details: Table 2; for pIC50: Mus musculus, MTX-resistant, 48 hour count reduced to 50% of control, read-out: ID50 L1210:R71
Experimental: The compounds of Example 2 were evaluated in vitro as inhibitors as TS and cell growth and in vivo against the L1210 tumour. Since methotrexate (MTX) resistance is an important problem in cancer therapy, the compounds of the present invention were also investigated with this in mind.
as §1, with “L1210 and L1210:R71 cells were grown in continuous suspension culture in RPMI 1640 medium containing 10% horse serum (Flow Laboratories, Irvine, Scotland; UK). Cells” for “Cells”

[3] = target: DIHYDROFOLATE REDUCTASE (DHFR); experiment: Inhibition of dihydrofolate reductase (DHFR) purified by affinity chromatography; format: biochemical; details: Table 1
Description: as §2

L1210 cells [4] = experiment: Reversal of toxicity to L1210 cells in culture by thymidine; format: cell-based, mouse; details: second results table; L1210
Experimental: as §1, with “L1210 and L1210:R71 cells were grown in continuous suspension culture in RPMI 1640 medium containing 10% horse serum (Flow Laboratories, Irvine, Scotland; UK). Cells” for “Cells”

[5] = L1210, 48 h, second results table, read-out: ID50 L1210 (Tissue culture)
[6] = L1210, Table 2, 48 hour count reduced to 50% of control, read-out: ID50 L1210

Row | Relative potency ([drawing 17], I50 relative to CB 3717) (TS) | pIC50 (TS) | pIC50 (L1210 cells [1]; [5]) | Structure (SMILES) | also measured
1 | 6.8 | 7.02 | 4.80 | Nc1nc(O)c2cc(CN(CCF)c3ccc(C(=O)N[C@@H](CCC(=O)O)C(=O)O)cc3)ccc2n1 [CB 3731, N-(4-(N-((2-amino-4-hydroxy-6-quinazolinyl)methyl)2-fluoroethylamino)benzoyl)-L-glutamic acid] | 
2 | 1.1 | 7.33 | 4.62 | C#CCN(Cc1ccc2nc(N)[nH]c(=O)c2c1)c1ccc(C(=O)N[C@@H](CCC(=O)O)C(=O)O)c(C)c1 [CB 3738] | 
3 | 40 | 5.79 | 4.00 | Nc1nc(O)c2cc(CN(CC(=O)c3ccccc3)c3ccc(C(=O)N[C@@H](CCC(=O)O)C(=O)O)cc3)ccc2n1 [CB 3733, N-(4-(N-((2-amino-4-hydroxy-6-quinazolinyl)methyl)phenacylamino)benzoyl)-L-glutamic acid] | 
4 |  |  | < 4.00 | CCOC(=O)CC[C@H](NC(=O)c1ccc(N(CC(=O)c2ccccc2)Cc2ccc3nc(N)nc(O)c3c2)cc1)C(=O)OCC [CB 3744, diethyl N-(4-(N-((2-amino-4-hydroxy-6-quinazolinyl)methyl)phenacylamino)benzoyl)-L-glutamate] | 
5 | 15.6 | 7.03 | 5.27 | N#CCN(Cc1ccc2nc(N)[nH]c(=O)c2c1)c1ccc(C(=O)N[C@@H](CCC(=O)O)C(=O)O)cc1 [CB 3726] | 
6 |  |  | < 4.00 | CCOC(=O)CC[C@H](NC(=O)c1ccc(N(Cc2ccc3nc(N)[nH]c(=O)c3c2)CC(O)CBr)cc1)C(=O)OCC (stereo partly drawn) [CB 3747] | 
7 | > 22 | < 6.00 | 5.33 | Nc1nc(O)c2cc(CN(Cc3c[nH]c(=O)[nH]c3=O)c3ccc(C(=O)N[C@@H](CCC(=O)O)C(=O)O)cc3)ccc2n1 [CB 3743, N-(4-(N-(2-amino-4-hydroxy-6-quinazolinyl)methyl-N-(5-uracilyl)methyl-amino)benzoyl)-L-glutamic acid] | Reversal by thymidine (in culture) (L1210 cells [4]): yes
8 | 1.6 | 7.18 | < 4.00 | C#CCN(Cc1ccc2nc(N)[nH]c(=O)c2c1)c1ccc(C(=O)N[C@@H](CC(=O)O)C(=O)O)cc1 [CB 3737] | 

More lines, now with the values behind:

Row | Structure (SMILES) | Relative potency ([drawing 17], I50 relative to CB 3717) (TS) | pIC50 (TS) | pIC50 (L1210 cells [1]; [5]) | also measured
9 | CCCN(Cc1ccc2nc(N)[nH]c(=O)c2c1)c1ccc(C(=O)N[C@@H](CCC(=O)O)C(=O)O)cc1 [Comparison, reference compound] |  |  |  | pIC50 [2]: 6.77; pIC50 (L1210:R71 cells): 3.50; CROSS RESISTANCE (ID50 L1210:R71/ID50 L1210) (L1210:R71 cells): 10; pKi [3]: 7.70; pIC50 (L1210 cells [1]; [6]): 4.48
10 | Nc1nc2ccc(CN(CC(=O)O)c3ccc(C(=O)N[C@@H](CCC(=O)O)C(=O)O)cc3)cc2c(=O)[nH]1 [CB 3728] | 100 | 5.85 | 4.57 | Reversal by thymidine (in culture) (L1210 cells [4]): yes
11 | C=CCN(Cc1ccc2nc(N)nc(O)c2c1)c1ccc(C(=O)N[C@@H](CCC(=O)O)C(=O)O)cc1 [CB 3716, N-(4-(N-((2-amino-4-hydroxy-6-quinazolinyl)methyl)prop-2-enylamino)benzoyl)-L-glutamic acid] |  |  |  | pIC50 [2]: 7.16; pIC50 (L1210:R71 cells): 4.00; CROSS RESISTANCE (ID50 L1210:R71/ID50 L1210) (L1210:R71 cells): 11; pKi [3]: 7.57; pIC50 (L1210 cells [1]; [6]): 5.06
12 | NC(=O)CN(Cc1ccc2nc(N)[nH]c(=O)c2c1)c1ccc(C(=O)N[C@@H](CCC(=O)O)C(=O)O)cc1 [CB 3734] | > 62.5 | < 5.52 | 4.06 | Reversal by thymidine (in culture) (L1210 cells [4]): yes
13 | Nc1nc2ccc(CN(CC3CO3)c3ccc(C(=O)N[C@@H](CCC(=O)O)C(=O)O)cc3)cc2c(=O)[nH]1 (stereo partly drawn) [CB 3736] | 7.6 | 6.51 | < 3.52 | 
14 | C#CCN(Cc1ccc2nc(N)nc(O)c2c1)c1ccc(C(=O)N[C@@H](CCC(=O)OCC)C(=O)OCC)cc1 [CB 3721, diethyl N-(4-(N-((2-amino-4-hydroxy-6-quinazolinyl)methyl)prop-2-ynylamino)benzoyl)-L-glutamate] | > 62 | < 5.52 | 4.28 | 
15 | C#CCN(Cc1ccc2nc(N)[nH]c(=O)c2c1)c1ccc(C(=O)N[C@@H](CCC(=O)O)C(=O)O)c(Cl)c1 [CB 3739] |  |  | 4.77 | 
16 | Nc1nc(O)c2cc(CN(CCCO)c3ccc(C(=O)N[C@@H](CCC(=O)O)C(=O)O)cc3)ccc2n1 [CB 3729, N-(4-(N-((2-amino-4-hydroxy-6-quinazolinyl)methyl)-3-hydroxypropylamino)-benzoyl)-L-glutamic acid] | 8.6 | 6.92 | 4.27 | 
17 | C#CCN(Cc1ccc2nc(N)[nH]c(=O)c2c1)c1ccc(C(=O)N[C@@H](CC(=O)OCC)C(=O)OCC)cc1 [CB 3748] |  |  | 4.00 | 
18 | Nc1nc2ccc(CN(CCBr)c3ccc(C(=O)N[C@@H](CCC(=O)O)C(=O)O)cc3)cc2c(=O)[nH]1 [CB 3735] | 23 | 5.96 | 4.28 | 
19 | CCOC(=O)CC[C@H](NC(=O)c1ccc(N(CC(=O)OCC)Cc2ccc3nc(N)[nH]c(=O)c3c2)cc1)C(=O)OCC [CB 3745] |  |  | < 4.00 | 
20 | CCOC(=O)CC[C@H](NC(=O)c1ccc(N(CCBr)Cc2ccc3nc(N)[nH]c(=O)c3c2)cc1)C(=O)OCC [CB 3746] |  |  | < 4.00 | 
21 | C#CCN(Cc1ccc2nc(N)[nH]c(=O)c2c1)c1ccc(C(=O)N[C@@H](CCC(=O)OCC)C(=O)OCC)c(Cl)c1 [CB 3750] |  |  | 4.74 | 
22 | C#CCN(Cc1ccc2nc(N)[nH]c(=O)c2c1)c1ccc(C(=O)N[C@@H](CCC(=O)OCC)C(=O)OCC)c(C)c1 [CB 3749] |  |  | 4.00 | 
